The text below walks through data of patent publication US6989263B1, “Method for identifying and using compounds that inactivate HIV-1 and other retroviruses by attacking highly conserved zinc fingers in the viral nucleocapsid protein” (The United States of America as represented by the …, priority 1994, dated 2006).

Molecules are shown by their SMILES.

The subject of one experiment is HIV-1MN. In words: Effect of NOBA on intact HIV-1MN (p24, zinc, TCIU of pelleted virus). Format: cell-based. As to conditions: for Zn: pelleted virus.
The test system of the next experiment is HIV-1. As to conditions: incubation of HIV-1; cited from earlier work.
Experiment [1] addresses reverse transcriptase enzyme (Human immunodeficiency virus type 1 group M subtype B, UniProt P04585). As to conditions: cited from earlier work.
The test system of another experiment is lymphocytes. To be noted: cited from earlier work.
In experiment [2] the target is HIV-1 CCHC zinc finger array (Human immunodeficiency virus type 1 group M subtype B, UniProt P04591). As to conditions: incubation of HIV-1; cited from earlier work.
The next experiment has as its target T1, p7NC (Human immunodeficiency virus type 1 group M subtype B, UniProt P05888).
T1 construct: The NC protein of HIV-1 (MN) p7NC was expressed in E. coli; made in house; host or cells: E. coli (vector pMAL-c)
Description: HPLC analysis of reaction products of purified p7NC with reagent. Format: biochemical, HIV-1. The method, boiled down:
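Purified zinc-reconstituted p7NC (63 μM) incubated 10 min with reagent at 6:1 reagent:protein; products resolved by reversed-phase C-18 HPLC at pH 2 (0.05% TFA) with acetonitrile gradient. Rated fast (full conversion), slow (>10% native remaining) or very slow (>50% native remaining).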

The target in another experiment is T2, HIV-1 (MN) p7NC (Human immunodeficiency virus type 1 group M subtype B, UniProt P05888).
T2 construct: The NC protein of HIV-1 (MN) p7NC was expressed in E. coli; made in house; host or cells: E. coli (vector pMAL-c)
In words: Intrinsic Trp-37 fluorescence quenching of p7NC. It is filed as biochemical. To be noted: Trp-37 fluorescence, zinc-reconstituted p7NC. From the text:
The NC protein of HIV-1 (MN) p7NC was expressed in E. coli. The coding sequence for HIV-1(MN) p7NC was cloned and expressed using an inducible E. coli promoter in the vector pMAL-c (New England Biolabs Inc., Beverly, Mass.). The protein was expressed as a maltose-binding fusion protein and released by proteolysis with Factor Xa. HIV-1(MN) p7NC was purified by HPLC and characterized, including complete amino acid sequence analysis. p7NC was purified by high-pressure liquid chromatography (HPLC) and reconstituted with two equivalents of zinc to generate native protein as described (M. F. Summers et al., Protein Sci. 1, 563 (1992)).
Coordination of Zn^+2 enhances the intrinsic fluorescence of the single tryptophan (Trp-37) in the second zinc finger. […] The initial phase of the reaction with Cu^+2 (T1/2<20 seconds) gave 70% quenching of the original fluorescence, followed by a much slower phase (T1/2 ca. 6 minutes), resulting in a final limiting quenching of 85%.
The first quenching phase was a second order reaction, whereas the second phase was independent of protein concentration or oxidizing species.

For another experiment, the system named is genomic RNA. To be noted: cited from earlier work.
The test system of the next experiment is proviral DNA synthesis. As to conditions: cited from earlier work.

With `NC(=O)c1cccc(N=O)c1` [NOBA, 3-nitrosobenzamide], the virus inactivated result in the experiment with HIV-1MN (0.03 mM, ratio of NOBA to zinc fingers 50:1) is “greater than 99%”. In addition, the “tissue culture infectious unit (TCIU/ml)” value in the experiment with HIV-1MN (NOBA 0.03 mM, 2 hours) is listed as 1.0 × 10^3 TCIU/ml. Moreover, the Zn was 0.21 µg/mL with HIV-1MN (NOBA 0.03 mM, 2 hours); 0.21 µg/mL in the experiment with HIV-1MN (NOBA 0.3 mM, 2 hours); 0.11 µg/mL with HIV-1MN (NOBA 3.0 mM, 2 hours). In addition, the viral inactivation entry with HIV-1 is “viral inactivation”. Besides, the “effect on the reverse transcriptase enzyme” value in experiment [1] is given as “without direct impairment”. Moreover, the “bindings of virus to lymphocytes” value with lymphocytes was “did not influence”. The “zinc loss from the HIV-1 CCHC zinc finger array” value in experiment [2] is “loss of zinc”. Further, at p7NC, the “reaction with purified p7NC (HPLC), in words” value is “oxidizes p7NC to products eluting as peaks A and B”. Besides, at HIV-1 (MN) p7NC, the “change in intrinsic fluorescence of p7NC on incubation” value was “rapid biphasic decrease in fluorescence”. Besides, the “levels of genomic RNA in the inactivated virus” value with genomic RNA is recorded as “did not influence”. In addition, the “proviral DNA synthesis” value with proviral DNA synthesis is “blocked”.
